The values that follow are results of earlier work, collected in paper PMC2913283 (Bioconjugate chemistry, 2010).

The conditions of this series: initial studies.

As to “Diethylenetriaminepenatacetic acid-(DTPA-Al^18F) complexes”, the stability in vitro entry is given as “not stable in vitro”.
